Tested on: T1, lactose oxidase (LOD)
T1 construct: native enzyme purified from wheat bran solid culture; 2 Zn per mole, no FAD or heme
Assay: peroxidase-4-aminoantipyrine assay, Hanes-Woolf plot
Assay type: biochemical, Myrmecridium flexuosum
Conditions: 50 mM Tris-HCl pH 7.8, 30 °C, O2 as acceptor
Text: peroxidase-4-aminoantipyrine assay, Hanes-Woolf plot on lactose oxidase (LOD)

[1] = substrate inhibition above 1 mM

Compound | Km [1] | Km
OC[C@H]1O[C@@H](O[C@H]2[C@H](O)[C@@H](O)C(O)O[C@@H]2CO)[C@H](O)[C@@H](O)[C@@H]1O (stereo partly drawn) [Cellobiose] | 63 µM | –
OC[C@H]1O[C@@H](O[C@H]2[C@H](O)[C@@H](O)C(O)O[C@@H]2CO)[C@H](O)[C@@H](O)[C@H]1O (stereo partly drawn) [Lactose] | 76 µM | –
OC[C@H]1O[C@H](O[C@H]2[C@H](O)[C@@H](O)C(O)O[C@@H]2CO)[C@H](O)[C@@H](O)[C@@H]1O (stereo partly drawn) [Maltose] | – | 22000 µM
